Results reported in patent publication US12473289B2, “Heterocyclic compounds as delta-5 desaturase inhibitors and methods of use” (Amgen Inc., priority 2019, dated 2025).

Columns and labels:
Delta-5-Desaturase (D5D) [1] = molecular target: Delta-5-Desaturase (D5D) (Homo sapiens (Human), UniProt O60427); assay: In vitro measurement of Delta-5-Desaturase inhibitory activity using DGLA-CoA and Arachidonyl-CoA mass spectrometric assays; assay type: biochemical; conditions: membrane preparations of D5D-overexpressing HEK293 6E cells; averaged over at least two independent runs
Delta-5-Desaturase (D5D) (Homo sapiens (Human), UniProt O60427), sequence (O60427 whole entry, species assumed): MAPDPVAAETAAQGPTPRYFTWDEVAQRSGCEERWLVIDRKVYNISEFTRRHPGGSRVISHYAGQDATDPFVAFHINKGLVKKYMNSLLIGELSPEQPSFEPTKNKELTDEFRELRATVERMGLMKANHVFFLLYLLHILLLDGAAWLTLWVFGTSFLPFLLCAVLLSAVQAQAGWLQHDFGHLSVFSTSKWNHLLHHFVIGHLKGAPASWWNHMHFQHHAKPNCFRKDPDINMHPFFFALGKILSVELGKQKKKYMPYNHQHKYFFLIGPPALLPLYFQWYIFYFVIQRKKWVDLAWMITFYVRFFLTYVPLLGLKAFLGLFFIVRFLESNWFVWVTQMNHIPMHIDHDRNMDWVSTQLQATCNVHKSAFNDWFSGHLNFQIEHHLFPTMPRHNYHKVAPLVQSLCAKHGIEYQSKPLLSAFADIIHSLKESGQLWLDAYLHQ
Outline: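 Membranes from D5D-overexpressing HEK293 6E cells (10 μg/mL final) in Tris pH 7.5 with MgCl2, octyl glucoside and TCEP were mixed 1:1 with substrate solution (0.01 mM DGLA, 0.25 mM NADH, 0.25 mM ATP, 0.05 mM CoA) for 1 h at ambient temperature. RapidFire SPE-MS/MS MRM; IC50 by 4-parameter fit, ≥2 runs.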

Delta-5-Desaturase (D5D) [2] = molecular target: Delta-5-Desaturase (D5D) (Mus musculus (Mouse), UniProt Q920L1); assay: In vivo measurement of Delta-5-Desaturase inhibitory activity (plasma AA/DGLA ratio in DIO mice); conditions: single oral dose 30 mg/kg, read-out: Average % D5D Inhibition expressed as Plasma Endogenous AA/DGLA Ratio
Delta-5-Desaturase (D5D) (Mus musculus (Mouse), UniProt Q920L1), sequence (Q920L1 whole entry): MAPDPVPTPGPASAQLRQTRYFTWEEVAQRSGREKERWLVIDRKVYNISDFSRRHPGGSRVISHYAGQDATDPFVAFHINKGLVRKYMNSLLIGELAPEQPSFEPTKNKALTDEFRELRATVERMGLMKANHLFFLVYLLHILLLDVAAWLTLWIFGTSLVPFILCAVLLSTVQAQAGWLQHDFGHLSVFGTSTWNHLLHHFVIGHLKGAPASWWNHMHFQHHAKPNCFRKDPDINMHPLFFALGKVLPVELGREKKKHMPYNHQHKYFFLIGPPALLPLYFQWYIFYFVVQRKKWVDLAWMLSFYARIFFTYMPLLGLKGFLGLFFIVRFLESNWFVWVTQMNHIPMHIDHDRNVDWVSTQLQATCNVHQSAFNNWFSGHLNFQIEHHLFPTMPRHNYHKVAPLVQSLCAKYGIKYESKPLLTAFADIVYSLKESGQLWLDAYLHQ
Experimental: In vivo Measurement of Delta-5-Desaturase Inhibitory Activity
Diet-induced obese (DIO; Jackson Laboratories strain #3800050) mice were used to screen for pharmacodynamic (PD) activity of test compounds. Generally, 14 to 24 week old DIO mice, were administered test compounds formulated in the vehicle of 2% hydroxypropyl methylcellulose (HPMC) and 1% Tween80. Animals were dosed on body weight by oral gavage with a single dose (30 mg/kg) for PD studies. Necropsy included plasma collection for PUFA analysis. 10 μl of plasma or standards diluted in surrogate matrix (65 g/l bovine serum albumin in Dulbecco's phosphate-buffered saline) were mixed with 10 μl of an internal standard (100 μM alpha-linolenic acid-d14 (ALA-d14, Cayman Chemical)) in a 96 well plate. 100 μl of 2N NAOH was added to the mixture for subsequent saponification at 65° C. for 1 hour. The mixture was then acidified with 50 μl of formic acid followed by two consecutive hexane extractions. Hexane (500 μl) was added and the mixture thoroughly mixed by vortexing, followed by centrifugation at 4,000 rpm for 15 min. The hexane phase was transferred to a new 1 ml 96 well plate and the remaining aqueous layer was extracted with hexane. The organic extracts were combined and the solvent was removed by placing the plate under nitrogen gas at 55° C. 250 μl of 90% methanol was added to the plate followed by vortexing for 2 minutes. 200 μl of the samples were transferred to a new 96 well polypropylene plate. The samples were analyzed on a LC-MS/MS for the following PUFAs: arachidonic acid (AA), dihomo-gamma-linolenic acid (DGLA), with ALA-d14 as the internal standard. Description of the LC-MS/MS method: 5 μl of sample was injected onto a Poroshell 120 EC-C18 3.0×50 mm, 1.9 μm id column. […] The PUFA peak areas were quantified by using the SCIEX Analyst software. […] The relative decrease of the AA/DGLA ratio of the test compound administered group relative to the vehicle administered group was calculated and used as an index for the degree of D5D inhibition.
The results presented in Table 27 were obtained using certain compounds described herein in the in vivo protocol described above.

Structure (SMILES)	IC50 (Delta-5-Desaturase (D5D) [1]) [nM]	inhibition in vivo at 30 mg/kg (Delta-5-Desaturase (D5D) [2]) [%]
Nc1ccn2c(=O)c(-c3ccc(OCC(F)(F)F)cc3)c(C(F)(F)F)nc2n1 [Example 14-2, 8-amino-3-(4-(2,2,2-trifluoroethoxy)phenyl)-2-(trifluoromethyl)-4H-pyrimido[1,2-a]pyrimidin-4-one]	35.7	73
[2H]C([2H])([2H])Oc1ccn2c(=O)c(-c3cnn(CC(F)(F)C(F)(F)F)c3)c(C(F)(F)F)nc2n1 [Example 3-2, 8-(methyloxy-d3)-3-(1-(2,2,3,3,3-pentafluoropropyl)-1H-pyrazol-4-yl)-2-(trifluoromethyl)-4H-pyrimido[1,2-a]pyrimidin-4-one]	34.2	67
COc1ccn2c(=O)c(-c3ccc(OCC(F)(F)F)cc3F)c(C(F)(F)F)nc2c1 [Example 1-20, 3-(2-fluoro-4-(2,2,2-trifluoroethoxy)phenyl)-8-methoxy-2-(trifluoromethyl)-4H-pyrido[1,2-a]pyrimidin-4-one]	8.9	78
O=c1c(-c2cnn(CC(F)(F)C(F)(F)F)c2)c(C(F)(F)F)nc2ccc(Cl)cn12 [Example 35, 7-Chloro-3-[1-(2,2,3,3,3-pentafluoropropyl)-1H-pyrazol-4-yl]-2-(trifluoromethyl)-4H-pyrido[1,2-a]pyrimidin-4-one]	3.8	75
O=c1c(-c2ccc(OCC(F)(F)F)cc2)c(C(F)(F)F)nc2cc(CO)ccn12 [Example 13-3, 8-(hydroxymethyl)-3-(4-(2,2,2-trifluoroethoxy)phenyl)-2-(trifluoromethyl)-4H-pyrido[1,2-a]pyrimidin-4-one]	5.6	77
COc1ccn2c(=O)c(-c3ccc(OC(C)(C)C#N)cc3)c(C(F)(F)F)nc2c1 [Example 24, 2-(4-(8-Methoxy-4-oxo-2-(trifluoromethyl)-4H-pyrido[1,2-a]pyrimidin-3-yl)phenoxy)-2-methylpropanenitrile]	28.9	70
CNc1ccn2c(=O)c(-c3ccc(OCC(F)(F)F)cc3)c(C(F)(F)F)nc2c1 [Example 1-29, 8-(methylamino)-3-(4-(2,2,2-trifluoroethoxy)phenyl)-2-(trifluoromethyl)-4H-pyrido[1,2-a]pyrimidin-4-one]	7	77
COc1ccn2c(=O)c(-c3ccc(OCC(F)(F)F)cc3)c(CF)nc2c1 [Example 1-58, 2-(fluoromethyl)-8-methoxy-3-(4-(2,2,2-trifluoroethoxy)phenyl)-4H-pyrido[1,2-a]pyrimidin-4-one]	66.1	74
